Experimental data taken from patent publication EP0081321A1, “2-Aminophenol derivatives” (ONO PHARMACEUTICAL CO., LTD., priority 1981, dated 1983).
Where a name gives a salt, the structure may show the parent alone.

The compounds below were run on mice (assay: acute toxicity by intravenous injection). Conditions: intravenous injection to tail vein, doses of 30 mg/Kg.
Type: in vivo
Method: On the other hand, all extent of the compounds of the present invention were confirmed that their acute toxicities were more than 30 mg/Kg by intravenous injection. Therefore, the compounds of the present invention may be considered to be sufficiently safe and suitable for medical use.

Compound | dead cases in test of acute toxicity
CCOC(=O)/C=C/C=C/c1cc(Cl)cc(N)c1O [Example 1(b), 2-Amino-4-chloro-6-[4-ethoxycarbonyl-(lE, 3E)-butadienyl]phenol hydrochloride] | no dead case in 21 cases
COC(=O)/C=C/c1cc(N)c(O)c(OC)c1.Cl [Example 1(e), 2-Amino-6-methoxy-4-[2-methoxycarbonyl-(1E)-vinyl]phenol hydrochloride] | no dead case in 21 cases
CCOC(=O)/C=C/c1cc(Cl)cc(N)c1O.Cl [Example 1(a), 2-Amino-4-chloro-6-[2-ethoxycarbonyl-(1E)-vinyl]phenol hydrochloride] | no dead case in 21 cases

Each compound was assayed on cyclooxygenase (assay: standard assay system using polymorphonuclear leukocytes, HHT or TXB2 production). Conditions: polymorphonuclear leukocytes from guinea pig (whole cells), [1-14C] arachidonic acid, 37°C, 5 minutes; production of HHT or TXB2; read-out: concentrations for 50% inhibitions on cyclooxygenase.
Type: cell-based
Method: Therefore, it is comfirmed that the compound (a) inhibits both enzymes at the same time at a very low concentration, and that the compounds (b), (c) and (d) inhibit 5-lipoxygenase slightly specifically at a very low concentration.
The experiments for screening using polymorphonuclear leukocytes were carried out as follows: The reaction mixture (0.1 ml) containing 5 µmole of potassium phosphase at pH 7.4, 0.1 µmole of calcium chloride, polymorphonuclear leukocytes prepared from guinea pigs (4 x 10^7 cells) and test compound was preincubated for 5 minutes at 37°C. The reaction was started by the addition of [1-^14C] arachidonic acid (2.2 x 10^3 dpm, 1.8 pmole), followed by the incubation at 37°C for 5 minutes. The reaction was terminated by the addition of 0.3 ml of a mixture of ether/methanol/lM citric acid (30/4/1). The organic phase (20 µl) was applied to silica gel plate. Thin layer chromatography was performed to separate each product with solvent system of ether/petroleum ether/acetic acid (85/15/0.1).
Activities of 5-lipoxygenase and cyclooxygenase were calculated from the measurements of the productions of 5-HETE, and 12L-hydroxy-5, 8, 10-[…] acid (i.e. HHT) or thromboxane B2 (i.e. TXB2) respectively. [it has been known that HHT and TXB2 were the last products of the system concerning cyclooxygenase in the arachidonate cascade.] The concentrations for 50% inhibitions on 5-lipoxygenase and on cyclooxygenase were evaluated by using the concentrations of compounds of the present invention required 50% inhibitions on the productions of 5-HETE, and HHT or TXB2.

Compound | IC50 [nM]
Nc1cc(/C=C/C(=O)OCc2ccc(-c3ccccc3)cc2)ccc1O [Example 1(h), 2-Amino-4-[2-[4-biphenylmethbxycarbonyl]-(1E)-vinyl]-phenol] | 10000
CCOC(=O)/C=C/c1cc(Sc2ccccc2)cc(N)c1O [Example 1(j), 2-Amino-6-[2-ethoxycarbonyl-(lE)-vinyl]-4-phenylthiophenol hydrochloride] | 600

Results, then the compound that gave them:

IC50 [nM] | Compound
2200 | CCOC(=O)/C=C/c1ccc(O)c(N)c1 [Example 1(d), 2-Amino-4-[2-ethoxycarbonyl-(1E)-vinyl]-phenol hydrochloride]
1000 | CCOC(=O)/C=C/c1cccc(N)c1O [Example 1, 2-Amino-6-[2-ethoxycarbonyl-(lE)-vinyl]-phenol hydrochloride]
